Source: ChEMBL document CHEMBL5096161, “Medulloblastoma drugs in development: Current leads, trials and drawbacks” (Eur J Med Chem, 2021)

Experiments:
[1] = Inhibition of hedgehog signalling in mouse Shh Light II cells assessed as luciferase activity; format: cell-based
[2] = Inhibition of Wnt/beta-catenin transactivation signalling in Wnt3a stimulated human HEK 293 STF cells harbouring TCF/LEF1 luciferase reporter gene assessed as reduction in luciferase activity by TOPFlash luciferase reporter assay; format: cell-based
[3] = target: Casein kinase I isoform alpha (Homo sapiens, UniProt P48729); test: Binding affinity to CK1alpha (unknown origin) using casein as substrate by fluorescence based analysis
Daoy [4] = test: Antiproliferative activity against human Daoy cells assessed as inhibition of cell proliferation incubated for 72 hrs by MTS assay; format: functional, cell-based
[5] = Antiproliferative activity against human UW228 cells assessed as inhibition of cell proliferation incubated for 72 hrs by MTS assay; format: functional, cell-based; details: UW228, 72 h
Daoy [6] = test: Antiproliferative activity against human Daoy cells assessed as reduction in cell viability by MTT assay; format: functional, cell-based
[7] = Antiproliferative activity against human Medulloblastoma cells expressing wild type SMO assessed as reduction in cell viability; format: functional, cell-based
[8] = Antiproliferative activity against human Med1 cells assessed as reduction in cell viability; format: functional, cell-based
[9] = Inhibition of hedgehog signalling in mouse Shh Light II cells co-transfected with Gli firefly and Renilla-luciferase assessed as reduction in SAG-induced Gli luciferase activity incubated for 24 hrs by dual luciferase reporter assay; format: cell-based
[10] = Inhibition of Shh-induced hedgehog signalling pathway in mouse MEF cells expressing Gli-Luc reporter gene assessed as reduction in Gli1 transcription activity incubated for 48 hrs in presence of recombinant mouse shh stimulation by Bright-Glo luciferase Assay
Protein smoothened [11] = target: T1, Protein smoothened (Homo sapiens, UniProt Q99835); test: Binding affinity to human SMO (181 to 787 residues) expressed in human HEK293 cells assessed as radioactivity incubated for 2 hrs in presence of H3-labeled smo antagonist by ligand-displacement assay; format: cell-based
D283 Med = test: Antiproliferative activity against human D283 Med cells assessed as inhibition of cell proliferation incubated for 48 hrs by MTS assay; format: functional, cell-based
[12] = Inhibition of hedgehog signalling in mouse Shh Light II cells co-transfected with Gli firefly luciferase assessed as inhibition of Gli luciferase expression measured after 30 hrs by luciferase reporter assay; format: cell-based
[13] = Antiproliferative activity against human Medulloblastoma cells expressing MYC and wild type Gfi1 assessed as reduction in cell viability incubated for 48 hrs by Cell TiterGlo luminescent assay; format: functional, cell-based
Protein smoothened [14] = target: Protein smoothened (Mus musculus, UniProt P56726); test: Inhibition of endogenous mouse Smo overexpressed in mouse C3H 10T1/2 cells cotransfected with Gli reporter gene assessed as Gli luciferase activity by dual luciferase assay; format: functional, cell-based
Protein smoothened [15] = target: T1, Protein smoothened; test: Inhibition of endogenous human Smo overexpressed in mouse C3H 10T1/2 cells cotransfected with Gli reporter gene assessed as Gli luciferase activity by dual luciferase assay; format: functional, cell-based
[16] = Half life in CD-1 mouse plasma at 10 mg/kg, po administered as single dose; format: ADME, organism-based
[17] = Prodrug conversion in ICR mouse brain assessed as Cmax of PF403 metabolite at 10 mg/kg, po and measured after 5 mins by LC-MS/MS analysis; format: ADME, organism-based; set-up: dose 10 mg/kg, time 5 min, route po; details: in vivo
[18] = Inhibition of hedgehog signalling in mouse Shh Light II cells transfected with Gli luciferase reporter gene assessed as Gli luciferase activity assessed as luciferase activity by luciferase assay; format: cell-based
[19] = Ratio of AUC in brain to plasma of C57BL/6 mouse at 2 mg/kg, po and measured after 24 hrs by LC/MS-MS analysis; format: ADME, organism-based; details: read-out: Ratio AUC
[20] = Antiproliferative activity against neonatally irradiated Ptch1-/+ mouse medulloblastoma cells assessed as inhibition of cell proliferation; format: functional, cell-based; details: light or radiation study
[21] = Inhibition of Hedgehog signaling in mouse NIH3T3 cells expressing GRE-Luc reporter gene assessed luciferase activity incubated for 48 hrs in presence of SAG by Bright-Glo luciferase assay; format: cell-based
[22] = Inhibition of hedge hog pathway in mouse Sufu-KO-LIGHT cells expressing firefly luciferase reporter gene assessed as inhibition of Gli transcription incubated for 16 hrs by Bright-Glo luciferase assay; format: cell-based

T1 sequence (Q99835 whole entry, the tested form may be a part): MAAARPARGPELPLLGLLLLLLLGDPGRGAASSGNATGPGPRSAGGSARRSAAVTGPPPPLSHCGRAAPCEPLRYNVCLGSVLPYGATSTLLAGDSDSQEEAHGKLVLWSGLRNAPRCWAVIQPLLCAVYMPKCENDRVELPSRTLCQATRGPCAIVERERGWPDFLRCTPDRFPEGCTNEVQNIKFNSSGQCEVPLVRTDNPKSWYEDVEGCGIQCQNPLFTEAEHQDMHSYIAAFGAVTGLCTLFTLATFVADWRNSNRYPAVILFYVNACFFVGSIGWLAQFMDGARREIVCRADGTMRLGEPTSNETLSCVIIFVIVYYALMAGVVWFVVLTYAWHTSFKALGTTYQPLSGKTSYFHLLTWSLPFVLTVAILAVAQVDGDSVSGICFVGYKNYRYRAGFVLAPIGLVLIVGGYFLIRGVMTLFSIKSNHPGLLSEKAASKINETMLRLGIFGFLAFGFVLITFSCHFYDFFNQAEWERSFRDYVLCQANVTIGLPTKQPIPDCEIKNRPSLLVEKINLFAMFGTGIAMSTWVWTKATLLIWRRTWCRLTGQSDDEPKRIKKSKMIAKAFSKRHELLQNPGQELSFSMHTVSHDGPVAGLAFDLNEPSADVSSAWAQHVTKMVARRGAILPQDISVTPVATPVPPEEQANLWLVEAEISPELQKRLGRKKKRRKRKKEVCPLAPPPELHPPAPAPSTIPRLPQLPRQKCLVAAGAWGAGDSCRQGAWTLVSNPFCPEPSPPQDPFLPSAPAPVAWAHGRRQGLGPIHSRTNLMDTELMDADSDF
Chain of Protein smoothened (Mus musculus, UniProt P56726) (P56726 whole entry): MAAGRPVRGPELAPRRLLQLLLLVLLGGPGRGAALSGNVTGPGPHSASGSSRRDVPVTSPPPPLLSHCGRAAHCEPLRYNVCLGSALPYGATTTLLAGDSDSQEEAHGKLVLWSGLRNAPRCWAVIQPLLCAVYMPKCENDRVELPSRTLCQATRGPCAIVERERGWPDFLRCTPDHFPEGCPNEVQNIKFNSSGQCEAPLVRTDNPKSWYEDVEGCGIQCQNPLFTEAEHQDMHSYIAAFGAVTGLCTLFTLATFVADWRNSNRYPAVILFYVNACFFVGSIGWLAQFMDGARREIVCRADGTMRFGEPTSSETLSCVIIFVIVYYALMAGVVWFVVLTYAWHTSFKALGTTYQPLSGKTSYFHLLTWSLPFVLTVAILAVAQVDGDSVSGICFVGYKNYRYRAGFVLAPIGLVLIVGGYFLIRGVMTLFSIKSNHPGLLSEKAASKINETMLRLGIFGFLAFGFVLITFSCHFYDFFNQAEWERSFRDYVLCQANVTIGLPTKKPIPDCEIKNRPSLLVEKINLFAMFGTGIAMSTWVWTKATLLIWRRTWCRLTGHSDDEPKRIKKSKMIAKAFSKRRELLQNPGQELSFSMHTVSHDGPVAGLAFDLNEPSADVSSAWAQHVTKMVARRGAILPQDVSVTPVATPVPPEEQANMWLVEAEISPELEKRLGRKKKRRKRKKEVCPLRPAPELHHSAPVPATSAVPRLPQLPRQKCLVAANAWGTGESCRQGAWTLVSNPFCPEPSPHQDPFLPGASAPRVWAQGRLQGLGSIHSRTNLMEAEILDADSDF
Chain of Casein kinase I isoform alpha (P48729 whole entry, canonical isoform): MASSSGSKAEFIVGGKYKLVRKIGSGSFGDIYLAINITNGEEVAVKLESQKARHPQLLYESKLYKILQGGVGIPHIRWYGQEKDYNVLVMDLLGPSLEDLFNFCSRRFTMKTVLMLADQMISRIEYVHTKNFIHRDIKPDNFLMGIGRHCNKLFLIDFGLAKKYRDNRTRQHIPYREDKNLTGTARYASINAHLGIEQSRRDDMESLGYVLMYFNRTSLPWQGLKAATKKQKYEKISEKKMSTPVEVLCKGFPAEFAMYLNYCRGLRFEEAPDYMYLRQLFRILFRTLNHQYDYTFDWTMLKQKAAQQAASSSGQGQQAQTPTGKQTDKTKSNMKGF

SMILES: Cc1cc(/C=C/c2ccc3cc(N(C)C)ccc3[n+]2C)c(C)n1-c1ccccc1
- IC50 [1]: 10 nM
- IC50 [2]: 10 nM
- Kd [3]: 1 nM

SMILES: COc1ccc(Cn2c3ncnc4c(ncn4Cc4ccc(OC)cc4)c-3nc2=O)cc1
- IC50 (Daoy [4]): 2500 nM
- IC50 [5]: 3500 nM

SMILES: COc1cc2c3c(c4ccc(O)cc4c2cc1OC)C[C@@H]1CCCN1C3
- IC50 (Daoy [6]): 0.013 nM

SMILES: Cc1sc2c(c1C)C(c1ccc(Cl)cc1)=N[C@@H](CC(=O)OC(C)(C)C)c1nnc(C)n1-2
- IC50 [7]: 50 nM
- IC50 [8]: 50 nM

SMILES: COc1cc2c(cc1-c1c(C)noc1C)ncc1[nH]c(=O)n([C@H](C)c3ccccn3)c12
- IC50 [9]: 30 nM

SMILES: Cc1cnc(-c2cc(N3CCN(C(=O)CCS(C)(=O)=O)CC3)ncc2Cl)c(C)c1
- IC50 [10]: 2.7 nM
- IC50 (Protein smoothened [11]): 5.8 nM

SMILES: Fc1ccc(CNc2ncnc3c2cnn3CC(Cl)c2ccc(Cl)cc2)cc1 (stereo not given)
- IC50 (D283 Med): 4890 nM

SMILES: C[C@H](CO)N1C[C@H](C)[C@H](CN(C)S(=O)(=O)c2ccc(Cl)cc2Cl)Oc2c(NC(=O)C3CC3)cccc2C1=O
- IC50 [12]: 60 nM

SMILES: c1ccc([C@@H]2C[C@H]2NC2CCNCC2)cc1
- IC50 [13]: 0.05 nM

SMILES: C[C@@H]1CN(c2ccc(C(=O)Nc3ccc(Cl)c(NC(=O)c4cccc(Cl)c4)c3)cn2)C[C@H](C)N1
- IC50 (Protein smoothened [14]): 27 nM
- IC50 (Protein smoothened [15]): 8 nM
- half-life [16]: 22 h

SMILES: COc1cc2c3c(c4ccc(OC(=O)C(C)(C)C)cc4c2cc1OC)C[C@@H]1CCCN1C3
- Cmax [17]: 37.76 ng/mL

SMILES: Cn1c(-c2ccccc2C(F)(F)F)nnc1C12CCC(c3noc(C4CC(F)(F)C4)n3)(CC1)CC2
- IC50 [18]: 1500 nM
- Kp at 24 h [19]: 0.6
- IC50 [20]: 300 nM

SMILES: Cc1cnc(-c2cc(N3CCc4nc(N5CCC(O)CC5)ncc4C3)ccc2Cl)c(C)c1
- IC50 [21]: 7.5 nM

SMILES: CCOc1ccc(-[n+]2cc(-c3ccc(Br)cc3)n3c2CCc2ccccc2-3)cc1
- IC50 [22]: 1420 nM

SMILES: C=CCn1c(=O)c2cnc(Nc3ccc(N4CCN(C)CC4)cc3)nc2n1-c1cccc(C(C)(C)O)n1 [ADAVOSERTIB]
- IC50 (Daoy [4]): 150 nM
- IC50 [5]: 232 nM
